Reference: ChEMBL document CHEMBL1149621, “The synthesis of 18beta-glycyrrhetinic acid derivatives which have increased antiproliferative and apoptotic effects in leukemia cells” (2007)
The source made the active and inactive calls. The rule behind the calls is not given here.

Columns and labels:
HL-60 [1] = test: Antiproliferative activity against human HL60 cells after 72 hrs; format: functional; conditions: HL-60, 72 h
HL-60 [2] = test: Induction of apoptosis in human HL60 cells at 80 uM after 6 hrs by fluorescence microscopy; format: functional
HL-60 [3] = test: Induction of apoptosis in human HL60 cells assessed as accumulation of cells in subG1 phase at 80 uM after 6 hrs by FACS method; format: functional
HL-60 [4] = test: Induction of apoptosis in human HL60 cells assessed as DNA fragmentation at 80 uM after 6 hrs; format: functional, cell-based

Compound	GI50 (HL-60 [1]) [µM]	Activity (HL-60 [2]) [%]	Activity (HL-60 [3]) [%]	Activity (HL-60 [4])
CC1(C)[C@@H](O)CC[C@]2(C)C3C(=O)C=C4[C@@H]5C[C@](C)(C(=O)O)CC[C@]5(C)CC[C@@]4(C)[C@]3(C)CC[C@@H]12 (stereo partly drawn)	63.2	24.9	12.7	inactive
CCCO/N=C1\CC[C@]2(C)C3C(=O)C=C4[C@@H]5C[C@](C)(C(=O)O)CC[C@]5(C)CC[C@@]4(C)[C@]3(C)CC[C@H]2C1(C)C (stereo partly drawn)	20.6	87.3	80.3	Active
CC(=O)O/N=C1\CC[C@]2(C)C3C(=O)C=C4[C@@H]5C[C@](C)(C(=O)O)CC[C@]5(C)CC[C@@]4(C)[C@]3(C)CC[C@H]2C1(C)C (stereo partly drawn)	58.8	19.1	–	–
CCC(=O)O/N=C1\CC[C@]2(C)C3C(=O)C=C4[C@@H]5C[C@](C)(C(=O)O)CC[C@]5(C)CC[C@@]4(C)[C@]3(C)CC[C@H]2C1(C)C (stereo partly drawn)	57.7	27.7	–	–
CCCO/N=C1\CC[C@]2(C)C3C(=O)C=C4[C@@H]5C[C@](C)(C(=O)OC)CC[C@]5(C)CC[C@@]4(C)[C@]3(C)CC[C@H]2C1(C)C (stereo partly drawn)	19	4.9	–	–
CCO/N=C1\CC[C@]2(C)C3C(=O)C=C4[C@@H]5C[C@](C)(C(=O)OC)CC[C@]5(C)CC[C@@]4(C)[C@]3(C)CC[C@H]2C1(C)C (stereo partly drawn)	19.1	8.6	–	–
CC1(C)C(=O)CC[C@]2(C)C3C(=O)C=C4[C@@H]5C[C@](C)(C(=O)O)CC[C@]5(C)CC[C@@]4(C)[C@]3(C)CC[C@@H]12 (stereo partly drawn)	59.6	28.5	–	–
CCO/N=C1\CC[C@]2(C)C3C(=O)C=C4[C@@H]5C[C@](C)(C(=O)O)CC[C@]5(C)CC[C@@]4(C)[C@]3(C)CC[C@H]2C1(C)C (stereo partly drawn)	24.4	59.7	68.7	Active
CC1(C)/C(=N/O)CC[C@]2(C)C3C(=O)C=C4[C@@H]5C[C@](C)(C(=O)O)CC[C@]5(C)CC[C@@]4(C)[C@]3(C)CC[C@@H]12 (stereo partly drawn)	63	24.5	–	–
CO/N=C1\CC[C@]2(C)C3C(=O)C=C4[C@@H]5C[C@](C)(C(=O)O)CC[C@]5(C)CC[C@@]4(C)[C@]3(C)CC[C@H]2C1(C)C (stereo partly drawn)	36.1	60.2	70.9	Active
